{"source": "patent US20090176711A1", "about": "“INHIBITORS OF AMYLOID PRECURSOR PROTEIN PROCESSING” (priority 2008, published 2009)", "key": {"[1]": {"tested_on": "γ-secretase cleavage in KEK293 APP cells", "test": "Cell based γ-secretase assay (α-CTF Western)", "parameters": "species or system human", "conditions": "cells treated for 9 hours", "protocol": "In order to test these peptides in the cell for their inhibitory effect on γ-secretase cleavage, a cell based assay was developed. After KEK293 APP cells were cultured in 6 well culture plates with 90% confluency, the cells were treated for 9 hours with N-[N-(3,5-difluorophenacetyl)-L-alanyl]-(S)-phenylglycine t-butyl ester (DAPT) (Dovey H F et al, J. Neurochemistry 2001;76:173-181), which is a known γ-secretase inhibitor, and complementary peptides. The cells in each well were lysed and these lysates were separated with 15% tris-tricine gel. Western analysis was performed with R1 antibody as primary antibody and goat anti-rabbit-HRP as secondary antibody."}, "[2]": {"tested_on": "cleavage of Substrate M by β-secretase", "test": "Inhibition of cleavage of Substrate M by β-secretase by complementary and deletion peptides (Examples 1, 5, 6; assay format not stated)", "type": "biochemical", "conditions": "for concentration dependent inhibitory activity, activity group: various concentrations, Substrate M (FIG. 8)", "protocol": "So far we have focused on c-Sub M peptide. Serial deletions were made from N-terminus or C-terminus of c-Sub M (FIG. 5), and we investigated effect of the deletions on the cleavage of Substrate M. The optimum peptide/substrate ratio for inhibition on the cleavage of substrate was determined by observing the inhibition percentage at various peptide/substrate ratios (FIG. 4). Subsequently, the inhibitory activity of the deletion peptides were tested at 10 inhibitor/substrate ratio and the concentration of the Substrate M was 50 μM. Deletion of the first two amino acids from the N-terminus had little effect on the activity and deletion of five amino acids from the C-terminus of c-Sub M had little effect on the inhibitory activity (FIG. 6). Further deleted peptides were tested for inhibitory activity on the cleavage of Substrate M (FIG. 7).\nThe above-mentioned peptides that have inhibitory activity were tested at various concentrations for their inhibitory activities on their mutant substrate Substrate M (FIG. 8)."}, "[3]": {"tested_on": "cleavage of Sub M by rhBACE1", "test": "HPLC analysis of the cleavage of Sub M by rhBACE1", "type": "biochemical, human", "conditions": "25-fold amount of inhibitor, 420 nM β-secretase", "protocol": "Substrate M (100 μM) was preincubated with complementary peptides ([…]) in assay buffer (100 μl) overnight at RT. rhBACE (140 nM) in assay buffer was added and incubated for 11 hr at RT. Cleavage products of Substrate M by rhBACE were quantitated after separation by C-18 reversed-phase column chromatography (GRACE VyDAC).\nOne of the advantages of the APP inhibitor described in the present invention is that it is a peptide or a mimetic that bind to the β-secretase cleavage site of APP, thus not affecting other β-secretase substrates. To confirm the specificity of the inventive APP inhibitor, two different types of substrates were used, APP Sub M and ST6Ga11. Both substrates are cleaved by β-secretase under normal conditions and the effect of the inventive APP inhibitor on the substrate cleavage was monitored by HPLC (See the schematic diagram in FIG. 16.) To carry out these experiments, the concentration of β-secretase required for cleavage of both substrates was determined as shown in FIG. 17. For substantial cleavage of ST6Ga11 substrate, 420 nM of the enzyme was required. Therefore, 420 nM of β-secretase was used for the following experiment.\nReversed-phase HPLC was also used to analyze the products of enzyme action in vitro. […] The cleavage products were identified at 215 nm and quantitated by integrating the area under each peak. […]"}, "[4]": {"tested_on": "γ-secretase (membrane fractions of N2a cells)", "test": "γ-Secretase activity assay on membrane fractions of N2a cells", "type": "biochemical, mouse", "conditions": "200 μM peptide, 12.5 μM fluorogenic substrate, 1 hour preincubation", "protocol": "Since γ-secretase is composed of four components, cloning of γ-secretase gene is impossible. Therefore, cell extracts were used as γ-secretase source. To obtain the cell extracts, after cell lysis with extraction buffer, the lysate was centrifuged at 10,000×g for 1 minute. Afterward, 2× reaction buffer and fluorogenic substrate was mixed and added to the cell lysate. Then, this mixture was incubated at 37° C. and γ-secretase activity was detected at excitation 335 to 355 nm and emission 495 to 510 nm.\nγ-Secretase activity assay was performed on membrane fractions of N2a cells in the presence of several complementary peptides. After 12.5 μM fluorogenic substrate and 200 μM each of the complementary peptides were preincubated for 1 hour, γ-secretase was added to the mixture. In the course of time, the fluorogenic substrate was cleaved by the γ-secretase."}, "rhBACE1": {"molecular_target": "T1, rhBACE1 (Homo sapiens, UniProt P56817)", "T1 construct": "purchased R&D Systems, Inc", "T1 sequence (P56817 46-501)": "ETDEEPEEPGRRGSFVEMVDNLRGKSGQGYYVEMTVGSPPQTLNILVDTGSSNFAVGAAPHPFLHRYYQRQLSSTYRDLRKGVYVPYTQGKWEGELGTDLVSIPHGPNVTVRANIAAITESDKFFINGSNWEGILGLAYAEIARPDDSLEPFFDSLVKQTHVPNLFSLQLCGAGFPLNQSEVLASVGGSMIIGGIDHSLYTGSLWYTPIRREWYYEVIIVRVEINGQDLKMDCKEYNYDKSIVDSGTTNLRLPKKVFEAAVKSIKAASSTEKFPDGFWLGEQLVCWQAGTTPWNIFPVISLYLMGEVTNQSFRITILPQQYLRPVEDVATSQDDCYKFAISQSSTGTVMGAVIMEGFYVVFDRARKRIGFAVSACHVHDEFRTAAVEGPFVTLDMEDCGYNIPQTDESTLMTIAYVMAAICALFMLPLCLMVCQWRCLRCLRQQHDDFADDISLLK", "test": "ELISA binding of rhBACE1 to immobilized c-Sub M", "source_text": "In one embodiment of the present invention, four HC decapeptides targeted to either wild type APP or APPsw may be designed. […] Therefore, there is possibility that c-Sub M or any compounds derived from c-Sub M may inhibit production of Aβ from wild type APP in cells."}, "[5]": {"tested_on": "Substrate M (Sub M, SEVNLDAEFR; β-secretase cleavage site of APPsw)", "test": "Binding of biotin-labeled Substrate M to immobilized complementary (HC) peptides", "conditions": "for binding activity for Sub M: HC peptides chemically coupled to plate, bio-Sub M", "protocol": "(§1) Complementary peptides (0.2, 2, 20, and 200 μM) were dissolved in phosphate buffered saline (PBS) (pH 7.4) and fixed to microtiter wells for 5 hr at 37° C. The wells were blocked with blocking buffer (3% BSA/PBS) for 1 hr at 37° C. Either N-terminally biotinylated Substrate W or M (20 μM) in blocking buffer was added and incubated for overnight at 4° C. Streptavidin-horseradish peroxidase in blocking buffer was added to detect resulting bound substrates. The plate was incubated for 2 hr at room temperature (RT), followed by addition of 3,3′,5,5′-tetramethyl-benzidine (TMB) as substrate for horseradish peroxidase for color reaction.\n(§2) Reacti-Bind™ maleic anhydride-activated polystyrene plate (Pierce, IL, USA) was coated with 50 μl of HC peptide (200 μM in distilled water) by chemical coupling for 3 h at room temperature (RT) and washed three times with phosphate buffered saline (PBS) containing 0.05% tween 20 (PBST). The plate was blocked with blocking buffer (0.5% gelatin in PBS) for 1 h at RT. After discarding blocking buffer, biotinylated BACE1 substrates (200 μM) in blocking buffer was applied on the plate and incubated for 2.5 h at RT. Each well was washed three times with PBST. The bound biotinylated BACE1 substrates were detected by incubation with streptavidin-horseradish peroxidase (Str-HRP, 125 mU/ml in blocking buffer) for 2 h at RT. Color reaction was carried out with 50 μl of 3,3′,5,5′-Tetramethylbenzidine Liquid Substrate (Sigma-Aldrich, MO, USA). After stopping the reaction by addition of an equal volume of 1 N HCl, absorbance at 450 nm was read in an automated ELISA reader (EL 312e, Bio-Tek Instruments, VT, USA). All assays were carried out in duplicate."}, "[6]": {"tested_on": "APP processing in HEK293-APP cells", "test": "APP inhibitor activity on HEK293-APP cells (βCTF Western blot)", "type": "cell-based, human", "conditions": "γ-secretase inhibitor and cholesterol added", "protocol": "In the neuronal cells of the brain, APP is processed by α-secretase or β-secretase. To investigate the effects of the inhibitors on the cell, a cell based assay system was developed as described in FIG. 10. C-terminal fragment of APP remaining on the cell membrane was detected by Western blot. The resulting C-terminal fragments, αCTF or βCTF are further processed by γ-secretase. However, if the cells are treated with the γ-secretase inhibitor, this processing is blocked. As a result, αCTF or βCTF accumulate in the cell. If β-secretase inhibitor or APP inhibitor is added, this processing is blocked and βCTF disappears.\nIn addition, γ-secretase inhibitor and cholesterol were added to the cells to increase βCTF level. Commercially available peptide-based β-secretase inhibitor was included as control (Lane 6, FIG. 11). To detect the N-terminal fragment of β-amyloid which is a product of APP processing, 6E10 antibody was employed. […] Recently, it has been reported that the commercially available peptide-based inhibitor had to be linked to an oligoarginine transporter peptide to have inhibitory activity against cells. Therefore, mimetic approach is adopted to produce cell permeable analogs. (Chang et al. J. Neurochemistry 2004; 89:1409-1416).\nAfter confirming the ability of the oligo-arginine coupled APP inhibitors to enter the cells, the inhibitors were applied to HEK293-APP cells overexpressing APP to test their inhibitory activities on APP processing. […] This inhibitor started to show significant inhibitory activity beginning from 0.1 μM (lower panel)."}, "[7]": {"molecular_target": "T2, Substrate W (Sub W, SEVKMDAEFR; β-secretase cleavage site of wild type APP) (Homo sapiens, UniProt P05067)", "T2 construct": "[…]; purchased Peptron, Inc; host or cells: chemical synthesis", "test": "Binding of biotin-labeled Substrate W to immobilized complementary (HC) peptides", "protocol": "as §1\nIn particular, for Substrate W, complementary peptides (200 μM) dissolved in phosphate buffered saline (PBS) (pH 7.4) were chemically coupled to Reacti-Bind Maleic Anhydride Activated Polystyrene wells (Pierce Biotechnology, Inc.) for overnight at room temperature (RT). Remaining active sites of the plate were inactivated by adding ethanolamine (1 M) for 1 hr at RT. The wells were blocked with blocking buffer (3% BSA/PBS) for 1 hr at RT. N-terminally biotinylated Substrate W (20 μM) in blocking buffer was added and incubated for 3 hr at RT. Streptavidin-horseradish peroxidase in blocking buffer was added to detect resulting bound substrates. The plate was incubated for 2 hr at room temperature (RT), followed by addition of 3,3′,5,5′-tetramethyl-benzidine (TMB) as substrate for horseradish peroxidase for color reaction.\nas §2"}, "HEK293-APP cells": {"tested_on": "HEK293-APP cells", "test": "Transport of peptides into cells (FITC label)", "type": "cell-based, human", "source_text": "To overcome the problem of APP inhibitor's inability to penetrate across the cell membrane, APP inhibitors were coupled with oligo-arginine (R9 means 9 Arginines), which is known to be a transporter peptide. These coupled peptides were labeled with FITC (Fluorescein isothiocyanate) using a linker AHX (aminohexanoic acid) to investigate whether the inhibitors pass through the cell membrane. FITC-AHX-c-Sub M-R9 and FITC-AHX-c-Sub MΔN1C1-R9 were made.\nOligo-arginine coupled APP inhibitors that were labeled with FITC were added to HEK293-APP cells to see whether the peptides pass through the cell membrane."}}, "note": "Entries after “also recorded” stand apart in the source; their conditions may differ. No end group written: not given here."}
{"molecule": "C[C@H](NC(=O)Cc1cc(F)cc(F)c1)C(=O)N[C@H](C(=O)OC(C)(C)C)c1ccccc1", "note": "[DAPT, N-[N-(3,5-difluorophenacetyl)-L-alanyl]-(S)-phenylglycine t-butyl ester]", "values": [{"measurement": "inhibition of γ-secretase activity in cells (α-CTF accumulation)", "setting": "[1]", "result": "inhibits γ-secretase activity very effectively"}]}
{"molecule": "FCIQIHF (also: cyclic, mode of cyclisation not given here) [c-Sub M ΔN2C1]", "values": [{"measurement": "concentration dependent inhibitory activity, activity group", "setting": "[2]", "result": "most active group"}, {"measurement": "Sub M cleavage blocked", "setting": "[3]", "result": "about 60%"}]}
{"molecule": "PQQYRCHRQR [rCh2 (3′→5′)]", "values": [{"measurement": "inhibitory effect on γ-secretase activity", "setting": "[4]", "result": "about 80%"}]}
{"molecule": "SEFCIQIHFR-NH2 [c-Sub M, SEFCIQIHFR]", "values": [{"measurement": "inhibition of cleavage of Substrate M by β-secretase", "setting": "[2]; FIG. 4", "result": "inhibit cleavage"}, {"measurement": "concentration dependent inhibitory activity, activity group", "setting": "[2]", "result": "less activity"}, {"measurement": "binding to rhBACE1", "setting": "rhBACE1", "result": "does not bind to rhBACE1"}, {"measurement": "binding activity for Sub M", "setting": "[5]", "result": "highest binding"}, {"measurement": "binding activity for Sub M", "setting": "[5]; listed as c-Sub", "result": "bound"}, {"measurement": "binding to Substrate M", "setting": "[5]; complementary peptide immobilized, biotin-labeled Substrate M", "result": "binds to Sub M appreciably and bind and binds its substrate Sub M"}, {"measurement": "absorbance in binding test", "setting": "[5]; substrate not specified", "result": "high absorbance"}, {"measurement": "inhibitory activity on APP processing (βCTF)", "setting": "[6]", "result": "does not inhibit the processing of APP in cells; also recorded: none of the inhibitors tested showed inhibitory activity"}, {"measurement": "binding to Sub W relative to c-Sub W", "setting": "[7]; HC peptides chemically coupled, bio-Sub W", "result": 4, "unit": "fold"}, {"measurement": "binding to Substrate W", "setting": "[7]; complementary peptide immobilized, biotin-labeled Substrate W", "result": "binds the wild type substrate Sub W efficiently"}, {"measurement": "transport into the cells", "setting": "HEK293-APP cells", "result": "does not enter the cells"}]}
